Test results reported in patent publication US20260297542A1, “HERBICIDE RESISTANT PLANTS” (SYNGENTA CROP PROTECTION AG, priority 2023, published 2026).
Numbering of substitutions follows the chain as printed.

Assays:
[1] = molecular target: T1, AtPPO1 S305L Y361T V365L T431R L479M (SEQ ID NO.130) (Arabidopsis thaliana, UniProt P55826, L479M/S305L/T431R/V365L/Y361T); assay: fluorescent Protoporphyrinogen Oxidase assay, crude extract; format: biochemical; conditions: read-out: percentage inhibition
T1 construct: made in house; host or cells: E. coli BL21 (DE3) hemG, crude extract
T1 sequence (P55826 35-537 S305L/Y361T/V365L/T431R/L479M): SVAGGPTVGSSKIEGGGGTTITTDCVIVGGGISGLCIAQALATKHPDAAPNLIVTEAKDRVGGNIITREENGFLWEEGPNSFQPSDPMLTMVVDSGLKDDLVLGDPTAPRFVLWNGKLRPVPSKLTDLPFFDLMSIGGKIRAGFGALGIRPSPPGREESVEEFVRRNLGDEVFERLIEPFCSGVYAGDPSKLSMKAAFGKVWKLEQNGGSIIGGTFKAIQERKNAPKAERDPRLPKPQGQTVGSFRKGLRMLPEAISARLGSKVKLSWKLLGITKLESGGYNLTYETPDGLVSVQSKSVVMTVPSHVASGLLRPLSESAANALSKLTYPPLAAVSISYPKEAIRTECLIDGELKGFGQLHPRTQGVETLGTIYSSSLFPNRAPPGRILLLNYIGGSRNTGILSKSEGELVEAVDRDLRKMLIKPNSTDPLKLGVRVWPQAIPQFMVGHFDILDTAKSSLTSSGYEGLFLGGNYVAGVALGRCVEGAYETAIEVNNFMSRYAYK

[2] = molecular target: T2, AtPPO1 Y361D V365L (SEQ ID NO.135) (Arabidopsis thaliana, UniProt P55826, V365L/Y361D); assay: as above; format: biochemical; conditions: for improvement over SEQ ID NO:124: AtPPO1 Y361D V365L (SEQ ID NO:135) vs SEQ ID NO:124; for inhibition at 0.1 ppm / inhibition at 1 ppm / inhibition at 10 ppm / inhibition at 100 ppm: read-out: percentage inhibition
T2 construct: made in house; host or cells: E. coli BL21 (DE3) hemG, crude extract
T2 sequence (P55826 35-537 Y361D/V365L): T1 sequence (P55826 35-537 S305L/Y361T/V365L/T431R/L479M) with L271S, T327D, R397T, M445L

Row | SMILES | inhibition at 1 ppm [1] [%] | inhibition at 10 ppm [1] [%] | inhibition at 100 ppm [1] [%] | improvement over SEQ ID NO:124 [2] | inhibition at 0.1 ppm [2] [%] | inhibition at 1 ppm [2] [%] | inhibition at 10 ppm [2] [%] | inhibition at 100 ppm [2] [%] | inhibition at 0.1 ppm [1] [%]
1 | CCOC(=O)C1(C)CC(c2cc(-n3c(=O)cc(C(F)(F)F)n(C)c3=O)c(F)cc2Cl)=NO1 (stereo not shown) [Herbicide C, 3-(2-chloro-4-fluoro-5-(3-methyl-2,6-dioxo-4-trifluoromethyl-3,6-dihydropyrimidin-1(2H)-yl)phenyl)-5-methyl-4,5-dihydroisoxazole-5-carboxylic acid ethyl ester] | 78 | 99 | 97 | improvement over SEQ ID NO:124 was seen | 30 | 84 | 94 | 100 | 
2 | C#CCN1C(=O)C(F)(F)Oc2cc(F)c(-n3c(=O)n(C)c(=S)n(C)c3=O)cc21 [Herbicide B, trifludimoxazin] | 100 | 97 | 98 | improvement over SEQ ID NO:124 was seen | 82 | 100 | 100 | 100 | 41
3 | CCOC(=O)[C@]1(C)CC(c2cc(-n3c(=O)n(C)c(=S)n(C)c3=O)c(F)cc2Cl)=NO1 [Herbicide D, ethyl (5S)-3-[2-chloro-5-(3,5-dimethyl-2,6-dioxo-4-thioxo-1,3,5-triazinan-1-yl)-4-fluoro-phenyl]-5-methyl-4H-isoxazole-5-carboxylate] | 42 | 89 | 92 | improvement over SEQ ID NO:124 was seen | 2 | 63 | 93 | 100 | 12
4 | CCOC(=O)COc1ncccc1Oc1cc(-n2c(=O)cc(C(F)(F)F)n(C)c2=O)c(F)cc1Cl [Herbicide A, epyrifenacil] | 69 | 99 | 94 |  | 56 | 89 | 99 | 96 | 15
5 | CC(C)N(C)S(=O)(=O)NC(=O)c1cc(-n2c(=O)cc(C(F)(F)F)n(C)c2=O)c(F)cc1Cl [Herbicide E, saflufenacil] | 45 | 82 | 91 | improvement over SEQ ID NO:124 was seen | 0 | 31 | 83 | 100 | 9
